From ChEMBL document CHEMBL5038643, “Phytochemical Investigation of the Roots of Ipomoea asarifolia and Antiproliferative Activity of the Isolated Compounds against Multiple Myeloma Cells” (J Nat Prod, 2022)
Activity calls are given as the source filed them. No cut-off for these calls is given here.

Columns and labels:
[1] = tested on: RPMI-8226; assay: Antiproliferative activity against human RPMI 8226 cells assessed as reduction in cell viability measured after 72 hrs by XTT assay; format: functional, cell-based; conditions: RPMI-8226, 72 h
[2] = tested on: MM1.S; assay: Antiproliferative activity against dexamethasone-sensitive human MM.1S cells assessed as reduction in cell viability measured after 72 hrs by XTT assay; format: functional, cell-based
[3] = Antiproliferative activity against dexamethasone-resistant human MM.1R cells assessed as reduction in cell viability measured after 72 hrs by XTT assay; format: functional, cell-based
[4] = tested on: MM1.S; assay: Antiproliferative activity against dexamethasone-sensitive human MM.1S cells assessed as reduction in cell viability at 10 uM measured after 72 hrs by XTT assay; format: functional, cell-based
[5] = tested on: MM.1R; assay: Antiproliferative activity against dexamethasone-resistant human MM.1R cells assessed as reduction in cell viability at 10 uM measured after 72 hrs by XTT assay; format: functional, cell-based
[6] = tested on: B-cell; assay: Cytotoxicity against human B lymphocyte assessed as reduction in cell viability at 50 uM measured after 72 hrs by XTT assay; format: toxicity, cell-based
[7] = tested on: RPMI-8226; assay: Antiproliferative activity against human RPMI 8226 cells assessed as reduction in cell viability at 10 uM measured after 72 hrs by XTT assay; format: functional, cell-based

SMILES | IC50 [1] [µM] | IC50 [2] [µM] | IC50 [3] [µM] | Activity [4] | Activity [5] | Activity [6] | Activity [7]
CCCCCCCCCCCCCCCCCCCCOC(=O)/C=C/c1ccc(O)cc1 | – | – | – | inactive | inactive | – | –
CCCCCCCCCCCCCCCCCCOC(=O)/C=C/c1ccc(O)cc1 | – | – | – | inactive | inactive | – | –
CCCCCCCCCCCCCCCCOC(=O)/C=C/c1ccc(O)cc1 | – | – | – | inactive | inactive | – | –
CCCCCCCCCC(=O)O[C@H]1[C@H](O[C@@H]2[C@H]3OC(=O)CCCCCCCCC[C@H](CCCCC)O[C@@H]4O[C@H](C)[C@H](O)[C@H](O)[C@H]4O[C@H](O[C@H]2C)[C@@H]3O)O[C@@H](C)[C@H](O[C@@H]2O[C@@H](C)[C@H](OC(=O)[C@@H](C)CC)[C@@H](OC(=O)/C=C/c3ccccc3)[C@H]2O)[C@H]1O[C@@H]1O[C@@H](C)[C@H](O)[C@@H](O)[C@H]1O [PESCAPREIN XXIII] | > 10 | – | – | inactive | inactive | – | –
CCCCCCCCCCCC(=O)O[C@H]1[C@H](O[C@@H]2[C@H]3OC(=O)CCCCCCCCC[C@H](CCCCC)O[C@@H]4O[C@H](C)[C@H](O)[C@H](O)[C@H]4O[C@H](O[C@H]2C)[C@@H]3O)O[C@@H](C)[C@H](O[C@@H]2O[C@@H](C)[C@H](OC(=O)[C@@H](C)CC)[C@@H](OC(=O)/C=C/c3ccccc3)[C@H]2O)[C@H]1O[C@@H]1O[C@@H](C)[C@H](O)[C@@H](O)[C@H]1O [PESCAPREIN XXI] | > 10 | – | – | inactive | inactive | – | –
CCCCCCCCCC(=O)O[C@H]1[C@H](O[C@@H]2[C@H]3OC(=O)CCCCCCCCC[C@H](CCCCC)O[C@@H]4O[C@H](C)[C@H](O)[C@H](O)[C@H]4O[C@H](O[C@H]2C)[C@@H]3O)O[C@@H](C)[C@H](O[C@@H]2O[C@@H](C)[C@H](OC(=O)C(C)C)[C@@H](OC(=O)/C=C/c3ccccc3)[C@H]2O)[C@H]1O[C@@H]1O[C@@H](C)[C@H](O)[C@@H](O)[C@H]1O [PESCAPREIN XXVI] | > 10 | – | – | inactive | inactive | – | –
CCCCCCCCCCCC(=O)O[C@H]1[C@H](O[C@@H]2[C@H]3OC(=O)CCCCCCCCC[C@H](CCCCC)O[C@@H]4O[C@H](C)[C@H](O)[C@H](O)[C@H]4O[C@H](O[C@H]2C)[C@@H]3O)O[C@@H](C)[C@H](O[C@@H]2O[C@@H](C)[C@H](OC(=O)C(C)C)[C@@H](OC(=O)/C=C/c3ccccc3)[C@H]2O)[C@H]1O[C@@H]1O[C@@H](C)[C@H](O)[C@@H](O)[C@H]1O [PESCAPREIN XXV] | > 10 | – | – | inactive | inactive | – | –

Now from value to compound, other results behind:

IC50 [1] [µM] | IC50 [2] [µM] | SMILES | IC50 [3] [µM] | Activity [4] | Activity [5] | Activity [6] | Activity [7]
9.4 | > 10 | CCCCCCCCCCCCCCCCCCOC(=O)/C=C/c1ccc(O)c(O)c1 | > 10 | inactive | inactive | Non-Toxic | –
3 | > 10 | CCCCCCCCCCCCCCCCOC(=O)/C=C/c1ccc(O)c(O)c1 | > 10 | inactive | inactive | Non-Toxic | –
> 10 | – | CCCCCCCCCCCC(=O)O[C@H]1[C@H](O[C@@H]2[C@H]3OC(=O)CCCCCCCCC[C@H](CCCCC)O[C@@H]4O[C@H](C)[C@H](O)[C@H](O)[C@H]4O[C@H](O[C@H]2C)[C@@H]3O)O[C@@H](C)[C@H](O[C@@H]2O[C@@H](C)[C@H](OC(=O)CCCCCCC)[C@@H](O)[C@H]2O)[C@H]1O[C@@H]1O[C@@H](C)[C@H](O)[C@@H](O)[C@H]1O | – | inactive | inactive | – | inactive
> 10 | – | C[C@H](CO)CC(=O)C[C@@H](C)CCC(=O)c1ccoc1 | – | inactive | inactive | – | –
0.0045 | 0.0026 | CC(C)C[C@H](NC(=O)[C@H](Cc1ccccc1)NC(=O)c1cnccn1)B(O)O [BORTEZOMIB] | 0.0048 | inactive | inactive | – | –
> 10 | – | CCCCCCCCCCCC(=O)O[C@H]1[C@H](O[C@@H]2[C@H]3OC(=O)CCCCCCCCC[C@H](CCCCC)O[C@@H]4O[C@H](C)[C@H](O)[C@H](O)[C@H]4O[C@H](O[C@H]2C)[C@@H]3O)O[C@@H](C)[C@H](O[C@@H]2O[C@@H](C)[C@H](OC(=O)[C@@H](C)CC)[C@@H](O)[C@H]2O)[C@H]1O[C@@H]1O[C@@H](C)[C@H](O)[C@@H](O)[C@H]1O [PESCAPREIN III] | – | inactive | inactive | – | –
10.8 | > 10 | CCCCCCCCCCCC(=O)O[C@H]1[C@H](O[C@@H]2[C@H]3OC(=O)CCCCCCCCC[C@H](CCCCC)O[C@@H]4O[C@H](C)[C@H](O)[C@H](O)[C@H]4O[C@H](O[C@H]2C)[C@@H]3O)O[C@@H](C)[C@H](O[C@@H]2O[C@@H](C)[C@H](OC(=O)CCCCC)[C@@H](O)[C@H]2O)[C@H]1O[C@@H]1O[C@@H](C)[C@H](O)[C@@H](O)[C@H]1O [PESCAPREIN IV] | > 10 | inactive | inactive | – | –
7.7 | > 10 | CCCCCCCCCC(=O)O[C@H]1[C@H](O[C@@H]2[C@H]3OC(=O)CCCCCCCCC[C@H](CCCCC)O[C@@H]4O[C@H](C)[C@H](O)[C@H](O)[C@H]4O[C@H](O[C@H]2C)[C@@H]3O)O[C@@H](C)[C@H](O[C@@H]2O[C@@H](C)[C@H](OC(=O)[C@@H](C)CC)[C@@H](O)[C@H]2O)[C@H]1O[C@@H]1O[C@@H](C)[C@H](O)[C@@H](O)[C@H]1O [STOLONIFERIN III] | > 10 | inactive | inactive | – | –
